# Measured values from PubChem BioAssay (NCI).
#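 A five-concentration, 48-hour dose response in 96-well plates underlies each endpoint, interpolated linearly between surrounding concentrations. Here, GI50 denotes the concentration required for 50% inhibition of growth. The concentration for full growth arrest is given as TGI.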
# Experiments:
# Test in all cases: NCI anticancer screen, dose series, 48 h
# [1] = system: 786-0 renal
# [2] = system: A498 renal
# [3] = system: A549 NSCLC
# [4] = system: ACHN renal
# [5] = system: BT-549 breast
# [6] = system: CAKI-1 renal
# [7] = system: CCRF-CEM leukemia
# [8] = system: COLO 205 colon
# [9] = system: DU-145 prostate
# [10] = system: EKVX NSCLC
# [11] = system: HCC-2998 colon
# [12] = system: HCT-116 colon
# [13] = system: HCT-15 colon
# [14] = system: HL-60(TB) leukemia
# [15] = system: HOP-62 NSCLC
# [16] = system: HOP-92 NSCLC
# [17] = system: HS 578T breast
# [18] = system: HT29 colon
# [19] = system: IGROV1 ovarian
# [20] = system: K-562 leukemia
# [21] = system: KM12 colon
# [22] = system: LOX IMVI melanoma
# [23] = system: M14 melanoma
# [24] = system: MALME-3M melanoma
# [25] = system: MCF7 breast
# [26] = system: MDA-MB-231 breast
# [27] = system: MDA-MB-435
# [28] = system: MOLT-4 leukemia
# [29] = system: NCI-H226 lung
# [30] = system: NCI-H23 lung
# [31] = system: NCI-H460 lung
# [32] = system: NCI-H522 lung
# [33] = system: NCI/ADR-RES ovarian
# [34] = system: OVCAR-3 ovarian
# [35] = system: OVCAR-4 ovarian
# [36] = system: OVCAR-5 ovarian
# [37] = system: OVCAR-8 ovarian
# [38] = system: PC-3 prostate
# [39] = system: RPMI-8226 leukemia
# [40] = system: RXF 393 renal
# [41] = system: SF-268 CNS
# [42] = system: SF-295 CNS
# [43] = system: SF-539 CNS
# [44] = system: SK-MEL-2 melanoma
# [45] = system: SK-MEL-28 melanoma
# [46] = system: SK-MEL-5 melanoma
# [47] = system: SK-OV-3 ovarian
# [48] = system: SN12C renal
# [49] = system: SNB-75 CNS
# [50] = system: SR leukemia
# [51] = system: SW-620 colon
# [52] = system: T-47D breast
# [53] = system: U251 CNS
# [54] = system: UACC-257 melanoma
# [55] = system: UACC-62 melanoma
# [56] = system: UO-31 renal
smiles,measurement,setting,value
CN1CCN(c2ccc(Nc3ncc4cc5n(c4n3)C3(CCCCC3)CNC5=O)nc2)CC1,GI50,[1],1.53 µM
same,TGI,[1],17 µM
same,GI50,[2],0.17 µM
same,TGI,[2],1.8 µM
same,GI50,[3],1.47 µM
same,TGI,[3],16.2 µM
same,GI50,[4],0.847 µM
same,TGI,[4],12.6 µM
same,GI50,[5],3.35 µM
same,TGI,[5],8.97 µM
same,GI50,[6],0.397 µM
same,TGI,[6],14.3 µM
same,GI50,[7],0.203 µM
same,TGI,[7],3.6 µM
same,GI50,[8],0.0632 µM
same,TGI,[8],11.3 µM
same,GI50,[9],3.43 µM
same,TGI,[9],17.2 µM
same,GI50,[10],2.14 µM
same,TGI,[10],14.1 µM
same,GI50,[11],6.14 µM
same,TGI,[11],30.4 µM
same,GI50,[12],1.81 µM
same,TGI,[12],11 µM
same,GI50,[13],2.16 µM
same,TGI,[13],13.2 µM
same,GI50,[14],0.0651 µM
same,TGI,[14],3.04 µM
same,GI50,[15],1.06 µM
same,TGI,[15],12.8 µM
same,GI50,[16],1.27 µM
same,TGI,[16],18.2 µM
same,GI50,[17],1.71 µM
same,TGI,[17],8.8 µM
same,GI50,[18],0.397 µM
same,TGI,[18],19.2 µM
same,GI50,[19],2.42 µM
same,TGI,[19],16.4 µM
same,GI50,[20],2.17 µM
same,TGI,[20],18.4 µM
same,GI50,[21],1.32 µM
same,TGI,[21],21.9 µM
same,GI50,[22],0.589 µM
same,TGI,[22],10.4 µM
same,GI50,[23],1.76 µM
same,TGI,[23],11.7 µM
same,GI50,[24],0.866 µM
same,TGI,[24],15.4 µM
same,GI50,[25],0.109 µM
same,TGI,[25],14.6 µM
same,GI50,[26],1.34 µM
same,TGI,[26],10.5 µM
same,GI50,[27],2.02 µM
same,TGI,[27],24 µM
same,GI50,[28],0.279 µM
same,TGI,[28],3.58 µM
same,GI50,[29],1.27 µM
same,TGI,[29],11.3 µM
same,GI50,[30],2.19 µM
same,TGI,[30],15.7 µM
same,GI50,[31],1.39 µM
same,TGI,[31],10.6 µM
same,GI50,[32],9.01 µM
same,TGI,[32],31.5 µM
same,GI50,[33],5.77 µM
same,TGI,[33],26 µM
same,GI50,[34],3.16 µM
same,TGI,[34],13.1 µM
same,GI50,[35],2.86 µM
same,TGI,[35],15.4 µM
same,GI50,[36],0.491 µM
same,TGI,[36],12.2 µM
same,GI50,[37],4.11 µM
same,TGI,[37],86.1 µM
same,GI50,[38],0.627 µM
same,TGI,[38],28.9 µM
same,GI50,[39],0.0624 µM
same,TGI,[39],4.04 µM
same,GI50,[40],1.32 µM
same,TGI,[40],3.71 µM
same,GI50,[41],1.46 µM
same,TGI,[41],4.94 µM
same,GI50,[42],3.09 µM
same,TGI,[42],18.4 µM
same,GI50,[43],2.29 µM
same,TGI,[43],6.72 µM
same,GI50,[44],4.49 µM
same,TGI,[44],21.8 µM
same,GI50,[45],3.01 µM
same,TGI,[45],26 µM
same,GI50,[46],3.2 µM
same,TGI,[46],15.6 µM
same,GI50,[47],11.4 µM
same,TGI,[47],68.2 µM
same,GI50,[48],1.5 µM
same,TGI,[48],12.2 µM
same,GI50,[49],1.41 µM
same,TGI,[49],4.54 µM
same,GI50,[50],0.307 µM
same,TGI,[50],3.28 µM
same,GI50,[51],0.166 µM
same,TGI,[51],11.8 µM
same,GI50,[52],4.15 µM
same,TGI,[52],> 100 µM
same,GI50,[53],1.32 µM
same,TGI,[53],28.2 µM
same,GI50,[54],5.67 µM
same,TGI,[54],39.2 µM
same,GI50,[55],2.94 µM
same,TGI,[55],19.8 µM
same,GI50,[56],0.67 µM
same,TGI,[56],12.9 µM
